Assay results published in ChEMBL document CHEMBL1126102, “2-(N'-aralkylidenehydrazino)adenosines: potent and selective coronary vasodilators” (J Med Chem, 1992).

Experiments:
Adenosine A2 receptor = assay: Tested for adenosine A2 receptor agonistic activity by determining coronary vasodilation; format: functional, Cavia porcellus
Adenosine receptor A1 = biological target: T1, Adenosine receptor A1 (Cavia porcellus, UniProt P47745); assay: Tested for adenosine A1 receptor agonistic activity by determining concentration needed to prolong the stimulus-QRS interval by 50% of the maximum response; format: functional
T1 sequence (P47745 whole entry): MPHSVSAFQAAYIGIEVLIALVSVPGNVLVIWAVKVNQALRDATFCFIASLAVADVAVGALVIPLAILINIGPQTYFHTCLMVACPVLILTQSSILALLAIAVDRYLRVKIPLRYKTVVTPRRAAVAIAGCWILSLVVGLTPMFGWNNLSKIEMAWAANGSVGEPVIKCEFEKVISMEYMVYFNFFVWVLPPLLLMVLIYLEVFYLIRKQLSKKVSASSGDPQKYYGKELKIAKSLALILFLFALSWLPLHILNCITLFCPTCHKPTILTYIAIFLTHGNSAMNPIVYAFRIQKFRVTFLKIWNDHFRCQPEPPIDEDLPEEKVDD

Compound | -Log EC50 (Adenosine A2 receptor) | EC50 (Adenosine receptor A1) [µM]
Nc1nc(N/N=C/c2cccc(F)c2)nc2c1ncn2C1O[C@H](CO)[C@@H](O)[C@H]1O (stereo not given in full) | 8.47 | 9.12
Cc1cccc(/C=N/Nc2nc(N)c3ncn(C4O[C@H](CO)[C@@H](O)[C@H]4O)c3n2)c1 (stereo not given in full) | 8.36 | 17
C/C(=N\Nc1nc(N)c2ncn(C3O[C@H](CO)[C@@H](O)[C@H]3O)c2n1)c1cccs1 (stereo not given in full) | 7.55 | 8.91
Nc1nc(N/N=C/Cc2ccccc2)nc2c1ncn2C1O[C@H](CO)[C@@H](O)[C@H]1O (stereo not given in full) | 8.04 | 83.2
Nc1nc(N/N=C/c2ccc(CCC(=O)O)cc2)nc2c1ncn2C1O[C@H](CO)[C@@H](O)[C@H]1O (stereo not given in full) | 8.18 | 30.9
Nc1nc(N/N=C/c2cccc(Cl)c2)nc2c1ncn2C1O[C@H](CO)[C@@H](O)[C@H]1O (stereo not given in full) | 8.34 | 49
Nc1nc(N/N=C/c2cc(Br)cs2)nc2c1ncn2C1O[C@H](CO)[C@@H](O)[C@H]1O (stereo not given in full) | 8.28 | 57.5
Nc1nc(N/N=C/c2ccncc2)nc2c1ncn2C1O[C@H](CO)[C@@H](O)[C@H]1O (stereo not given in full) | 7.96 | 26.3
CC(C)(C)OC(=O)CCc1ccc(CCNc2nc(N)c3ncn(C4O[C@H](CO)[C@@H](O)[C@H]4O)c3n2)cc1 (stereo not given in full) | 8.28 | 19.1
Nc1nc(N/N=C/c2ccccc2)nc2c1ncn2C1O[C@H](CO)[C@@H](O)[C@H]1O (stereo not given in full) | 8.64 | 83.2
CC(C)(C)OC(=O)CCc1ccc(/C=N/Nc2nc(N)c3ncn(C4O[C@H](CO)[C@@H](O)[C@H]4O)c3n2)cc1 (stereo not given in full) | 8.52 | 12
Nc1nc(N/N=C/CCc2ccccc2)nc2c1ncn2C1O[C@H](CO)[C@@H](O)[C@H]1O (stereo not given in full) | – | 66.1
COc1ccccc1/C=N/Nc1nc(N)c2ncn(C3O[C@H](CO)[C@@H](O)[C@H]3O)c2n1 (stereo not given in full) | 6.86 | 12.3
C/C(=N\Nc1nc(N)c2ncn(C3O[C@H](CO)[C@@H](O)[C@H]3O)c2n1)c1ccc(F)cc1 (stereo not given in full) | 8.49 | 4.17
Nc1nc(N/N=C/c2cccc3ccccc23)nc2c1ncn2C1O[C@H](CO)[C@@H](O)[C@H]1O (stereo not given in full) | 8.02 | 0.832
Nc1nc(N/N=C/c2cccs2)nc2c1ncn2C1O[C@H](CO)[C@@H](O)[C@H]1O (stereo not given in full) | 7.86 | 41.7
Nc1nc(N/N=C/c2cccnc2)nc2c1ncn2C1O[C@H](CO)[C@@H](O)[C@H]1O (stereo not given in full) | 7.83 | 32.4
Nc1nc(N/N=C/c2ccccc2F)nc2c1ncn2C1O[C@H](CO)[C@@H](O)[C@H]1O (stereo not given in full) | 8.43 | 41.7
COc1cccc(/C=N/Nc2nc(N)c3ncn(C4O[C@H](CO)[C@@H](O)[C@H]4O)c3n2)c1 (stereo not given in full) | 7.91 | 19.5
Cc1ccccc1/C=N/Nc1nc(N)c2ncn(C3O[C@H](CO)[C@@H](O)[C@H]3O)c2n1 (stereo not given in full) | 7.92 | 43.7
Nc1nc(N/N=C/c2ccccc2Cl)nc2c1ncn2C1O[C@H](CO)[C@@H](O)[C@H]1O (stereo not given in full) | 8.12 | 49
NNc1nc(N)c2ncn(C3O[C@H](CO)[C@@H](O)[C@H]3O)c2n1 (stereo not given in full) | 7.1 | –
Nc1nc(N/N=C/c2ccsc2)nc2c1ncn2C1O[C@H](CO)[C@@H](O)[C@H]1O (stereo not given in full) | 7.81 | 60.3
Cc1ccc(/C=N/Nc2nc(N)c3ncn(C4O[C@H](CO)[C@@H](O)[C@H]4O)c3n2)cc1 (stereo not given in full) | – | 39.8
C/C(=N\Nc1nc(N)c2ncn(C3O[C@H](CO)[C@@H](O)[C@H]3O)c2n1)c1ccccc1 (stereo not given in full) | 7.9 | 3.02
Nc1nc(N/N=C/c2ccccn2)nc2c1ncn2C1O[C@H](CO)[C@@H](O)[C@H]1O (stereo not given in full) | 8.24 | 41.7
Nc1nc(N/N=C/c2ccc3ccccc3c2)nc2c1ncn2C1O[C@H](CO)[C@@H](O)[C@H]1O (stereo not given in full) | 8.38 | 2.63
Nc1nc(N/N=C/c2ccc(F)cc2)nc2c1ncn2C1O[C@H](CO)[C@@H](O)[C@H]1O (stereo not given in full) | 8.61 | 12.6
Nc1nc(NCCc2ccc(CCC(=O)O)cc2)nc2c1ncn2C1O[C@H](CO)[C@@H](O)[C@H]1O (stereo not given in full) | 7.95 | 112
